{
  "source": "paper PMC8096265",
  "about": "“A functional LSD1 coregulator screen reveals a novel transcriptional regulatory cascade connecting R-loop homeostasis with epigenetic regulation” (Nucleic Acids Research, 2021)",
  "key": {"[1]": {"system": "rTetR-LSD1 at synP-mCherry reporter in NIH/3T3 cells", "test": "Flow-cytometric synP-mCherry reporter silencing by rTetR-LSD1", "type": "cell-based, murine", "conditions": "n = 3; for effect of inhibitor on rTetR-LSD1 activity at synP (mCherry silencing): 10 μM GSK-LSD1 or 400 nM TSA, started in parallel with DOX (1 μg/ml), vs DMSO", "from_the_text": "The fluorescent reporter expressing mCherry from a synthetic promoter (synP), consisting of six tetO binding sites upstream of an EF1a promoter, was cloned into pMSCV vector, on which expression of mCherry was driven by the synP promoter element and coupled to Blasticidin resistance via a P2A (pMSCV-tetO-EF1a-mCherry-2A-Blasti). The rTetR-LSD1 fusion construct was cloned into a pRRL backbone by standard cloning methods. The LSD1 construct was kindly provided by Tim Somervaille. Expression was driven from an SFFV promoter and coupled to Hygromycin resistance via a P2A sequence (pRRL-rTetR-LSD1-P2A-Hygro). shRNA guides were cloned into the SGEN vector ([49]).\nNIH/3T3, Lenti-X 293T and Platinum-E retroviral packaging cell lines were cultivated in DMEM high glucose media (Sigma-Aldrich) supplemented with 10% FBS, 20 mM glutamate, 10 mM sodium pyruvate, 10 mM HEPES (pH 7.3), 100 U/ml penicillin and […] in an incubator providing 37°C and 5% CO2. For retroviral packaging of pMSCV vectors, 20 μg of plasmid were precipitated for 20 min in HBS buffer (140 mM NaCl, 25 mM HEPES, 0.75 mM Na2HPO4, pH 7.0) together with 125 mM CaCl2 and 10 μg GagPol helper plasmid. The mix was added to a 10 cm dish with Platinum-E cells growing at 75–85% confluence in supplemented DMEM. After 16 and 24 h, the media was replaced with fresh DMEM. Supernatant containing the virus was gathered 40–50 h after transfection, filtered through a 0.45 μm filter and added to the target cells at 50–70% confluence. Antibiotic selection for pMSCV-tetO-EF1a-mCherry-2A-Blasti with 10 μg/ml Blasticidin was started 2 days after transduction and kept up for 7 days. For […] packaging of pRRL-vectors, plasmids were mixed with helper plasmids pCMVR8.74 (pCMVR8.74 was a gift from Didier Trono, Addgene #22036) and pCAG-Eco (pCAG-Eco was a gift from Arthur Nienhuis & Patrick Salmon, Addgene #35617) and 3× (w/w) excess of polyethyleneimine 25K in serum free DMEM. […] Expression of GFP and mCherry was analysed every 1–3 days using a MACSQuant Vyb flow cytometer."}, "[2]": {"system": "RNA:DNA hybrid structures (R-loops) in NIH/3T3 cells", "test": "DRIP-qPCR with S9.6 antibody, R-loops", "type": "cell-based, murine", "conditions": "relative to DMSO, NIH/3T3, n = 3", "description": "Based on a detailed assessment of various DRIP protocols ([53]), DRIP was performed as described, with slight adaptations to workflow #19 ([53]). In brief, NIH/3T3 cells were harvested, washed once with 1X PBS and cross-linked in 1% formaldehyde/PBS for 10 min at room temperature. Crosslinking was quenched with 500 mM glycine for 5 min at room temperature. Cells were lysed in 300 μl of ChIP lysis buffer (50mM HEPES–KOH at pH 7.5, 140 mM NaCl, 1 mM EDTA at pH 8, 1% Triton X-100, 0.1% sodium-deoxycholate, 1% SDS) per 2 million cells for 30 min on ice and homogenized with a syringe every 10 min. Chromatin was fragmented by sonication using an EpiShear Probe Sonicator (Active Motif) for 2 × 12 cycles (20 s pulse, 30 s pause, 40% amplitude). The fragmented chromatin was supplemented with 300 mM NaCl and 50 μg of RNase A in 450 μl TE buffer (10 mM Tris–HCl pH 8, 10 mM EDTA pH 8) and incubated at 37°C for 1 h. The cross-linked D. melanogaster mononucleosomes were treated in parallel to obtain DNA for spike-in controls. To remove proteins and reverse the cross-links, the samples were treated with 15 μl of Proteinase K (20 mg/ml; Thermo Fisher Scientific) at 65°C for 16 h. […] The pellet was resuspended in 5 mM Tris–HCl, pH 8.5 and concentration was determined by NanoDrop. […]"}, "[3]": {"system": "rTetR-LSD1 silencing of synP-mCherry in NIH/3T3 cells", "test": "ChECS pooled shRNA screen, primary sequencing data", "type": "cell-based, murine", "conditions": "14 days DOX; for sequencing reads neg2 / sequencing reads neg3 / sequencing reads neg4 / sequencing reads neg5: mCherry-negative sorted population; for sequencing reads neg2 / sequencing reads pos2: replicate 2; for sequencing reads neg3 / sequencing reads pos3: replicate 3; for sequencing reads neg4 / sequencing reads pos4: replicate 4; for sequencing reads neg5 / sequencing reads pos5: replicate 5; for sequencing reads pos1 / sequencing reads pos2 / sequencing reads pos3 / sequencing reads pos4 / sequencing reads pos5: mCherry-positive sorted population; for sequencing reads pos1: replicate 1", "from_the_text": "After spiking in control shRNAs at equimolar amounts, the shRNA-mirE library (5451 shRNAs and 8 control shRNAs) targeting 1010 chromatin-associated murine genes was transduced into NIH/3T3 cells expressing the synP-mCherry reporter and rTetR-LSD1. To ensure library representation, a total of 30 million cells were infected with 10% transduction efficiency using conditions that predominantly lead to a single retroviral integration and represent each shRNA in a calculated number of >500 cells. Cells were split into replicates and selected with 2.5 mg/ml Neomycin for 7 days before starting treatment with 1 μg/ml doxycycline. Throughout selection >3 × 10^6 cells per replicate were maintained at each passage to preserve library representation. After 14 days of DOX treatment, cells were sorted into mCherry-positive (top 6–8%, minimum of 5 × 10^5 cells) and mCherry-negative (lowest 75–80%, minimum of 6 × 10^6 cells, see Supplementary Figure S2) populations using a FACS Aria III. Genomic DNA for both populations and 5 replicates was isolated with phenol-extraction using PhaseLock tubes, followed by ethanol precipitation. For each sample, DNA from at least 10^6 cells was used as template in multiple parallel 50-μl PCR reactions, each containing 1 μg template, 1× AmpliTaq Gold buffer, 0.2 mM of each dNTP, 2 mM MgCl2, 0.3 μM of each primer and 1.25 U AmpliTaq Gold Polymerase (Life Technologies). In a first round of PCRs, random barcodes and sample barcodes were added to the shRNA sequences using the following cycling parameters: 95°C for 10 min; 28 cycles of (95°C for 30 s, 54°C for 45 s and 72°C for 60 s); 72°C for 7 min and primers MM2P51_for and MM2P71_rev (Supplementary Table S3). PCR products were combined for each sample, purified from a 1% agarose gel and 20 ng per sample were transferred to a second round of PCR, using similar cycling parameters as for PCR1, but with only 10 ng template per reaction, 6 cycles of amplification and primers MM2P52_for and MM2P72_rev_N708 (Supplementary Table S3). In the second PCR, standard Illumina P7 adaptors and the Illumina N708 index were added to the sequences (total product length = 428 bp). All primers used for the library preparation are listed in […]. The final libraries were cleaned up from a 1% agarose gel, pooled and analysed on an Illumina HiSeq 3000 deep sequencer (150 bp read length including the 22 nucleotides of the guide strand), using standard Illumina primers. Sequence processing was performed using a public Galaxy server (www.usegalaxy.eu). All primary screen data are provided in Supplementary Data Table S1. For each shRNA, the number of matching reads was normalized to the total number of library-specific reads per lane and imported into Microsoft Excel for further analysis. Completely depleted shRNAs (0 reads at T0) obtained a fold depletion value of 1 × 10^−3. The average enrichment score for each individual shRNA was calculated by dividing the geometric mean of the normalized reads of the mCherry+ population by the respective normalized reads mCherry– populations (mCherry+/mCherry–) across five replicates. The gene score was derived by summarizing the average enrichment score of all shRNAs per gene. P-values are based on a Poisson distribution of each shRNA in each individual replicate followed by the combination of all P-values across all replicates using Fisher′s method (cumulative χ^2). χ^2 is a chi-squared distribution with 2k degrees of freedom, where k is the number of tests being combined. This fact was used to determine the P-value for χ^2 followed by a Bonferroni correction for multiple comparison to obtain a P-value for each investigated gene in the library."}, "[4]": {"system": "EZH2", "test": "Global H3K27me3 signal after EZH2 inhibition", "type": "cell-based", "conditions": "EZH2-specific inhibitor; Supplementary Figure S6C"}},
  "data": [
    {"molecule": "c1ccc([C@@H]2C[C@H]2NC2CCNCC2)cc1", "note": "[GSK-LSD1]", "values": [
      {"measurement": "effect of inhibitor on rTetR-LSD1 activity at synP (mCherry silencing)", "setting": "[1]", "result": "the activity of rTetR-LSD1 at the synP element is dependent on the catalytic activity of LSD1 and HDACs"},
      {"measurement": "R-loops after GSK-LSD1 treatment", "setting": "[2]; 50 μM GSK-LSD1, 3 days, synP element and representative endogenous regions", "result": "substantial increase in R-loops"}
    ]},
    {"molecule": "Kdm4b.2934: library shRNA, guide TTCTTGGTGATGACGATCTGGC", "values": [
      {"measurement": "sequencing reads neg2", "setting": "[3]", "result": 0.001},
      {"measurement": "sequencing reads neg3", "setting": "[3]", "result": 0},
      {"measurement": "sequencing reads neg4", "setting": "[3]", "result": 0},
      {"measurement": "sequencing reads neg5", "setting": "[3]", "result": 14},
      {"measurement": "sequencing reads pos1", "setting": "[3]", "result": 14},
      {"measurement": "sequencing reads pos2", "setting": "[3]", "result": 426},
      {"measurement": "sequencing reads pos3", "setting": "[3]", "result": 0},
      {"measurement": "sequencing reads pos4", "setting": "[3]", "result": 1},
      {"measurement": "sequencing reads pos5", "setting": "[3]", "result": 159}
    ]},
    {"molecule": "CC(/C=C/C(=O)NO)=C\\[C@@H](C)C(=O)c1ccc(N(C)C)cc1", "note": "[Trichostatin A (TSA), Trichostatin A]", "values": [
      {"measurement": "effect of inhibitor on rTetR-LSD1 activity at synP (mCherry silencing)", "setting": "[1]", "result": "the activity of rTetR-LSD1 at the synP element is dependent on the catalytic activity of LSD1 and HDACs"}
    ]},
    {"molecule": "Homez.5313: library shRNA, guide TAAAACAGTAGTTCCTAGCCTT", "values": [
      {"measurement": "sequencing reads neg2", "setting": "[3]", "result": 0.001},
      {"measurement": "sequencing reads neg3", "setting": "[3]", "result": 22},
      {"measurement": "sequencing reads neg4", "setting": "[3]", "result": 0},
      {"measurement": "sequencing reads neg5", "setting": "[3]", "result": 4},
      {"measurement": "sequencing reads pos1", "setting": "[3]", "result": 130},
      {"measurement": "sequencing reads pos2", "setting": "[3]", "result": 19},
      {"measurement": "sequencing reads pos3", "setting": "[3]", "result": 22},
      {"measurement": "sequencing reads pos4", "setting": "[3]", "result": 4},
      {"measurement": "sequencing reads pos5", "setting": "[3]", "result": 48}
    ]},
    {"molecule": "CCCc1cc(C)[nH]c(=O)c1CNC(=O)c1cc(-c2ccnc(N3CCN(C)CC3)c2)cc2c1cnn2C(C)C", "note": "[GSK343]", "values": [
      {"measurement": "LSD1 silencing capacity at the synP element after GSK343 treatment", "setting": "[1]; 5 μM GSK343 vs DMSO during rTetR-LSD1 recruitment via DOX, time course", "result": "diminished LSD1 silencing capacity at the synP element"},
      {"measurement": "R-loop occupancy after GSK343 treatment", "setting": "[2]; 5 μM GSK343, 3 days, synP element and representative endogenous loci", "result": "increased R-loop occupancy"},
      {"measurement": "H3K27me3 signal after GSK343 treatment", "setting": "[4]", "result": "global reduction of H3K27me3 signal"}
    ]}
  ]
}
